Results published in publication PMC10830635, “In vitro cytotoxicity of Withania somnifera (L.) roots and fruits on oral squamous cell carcinoma cell lines: a study supported by flow cytometry, spectral, and computational investigations” (Frontiers in Pharmacology, 2024).
Where two headings read alike, the source gives them in different places. *1 amine or outer side, *2 acyl side, *3 side chain or, on linkers, in order; H or OH if unused. Where a SMILES comes first, the peptide text is derived from it. Bridges are numbered along the chain shown (N, C = ends). Roman numbers before positions name the chains, in order. [ ]: non-standard residue; d: D form. Actinocin(9to1) = Cc1c2oc3c(C)ccc(C(=O)[*:1])c3nc-2c(C(=O)[*:2])c(N)c1=O; NMeV = CN[C@H](C(=O)O)C(C)C; Sar = CNCC(=O)O

Tests used:
[1] = MTT cytotoxicity assay, HPC; format: cell-based; settings: human, normal pulp cells (HPC), 2 days exposure
Protocol: For cytotoxicity testing, cells were then garnered using 0.25% trypsin–0.025% sodium edetate in a phosphate-buffered saline lacking Ca^2+/Mg^2+ [PBS (−)]. The cells were cultured in 96-well microplates at a cell count of 3 ×10^3 cells/100 μL. After 2 days, the exhausted medium was replaced with fresh medium containing the different concentrations of sample to be tested, in triplicate. The initial sample concentration was set at 5 mg/mL in DMSO. The first concentration examined was thus 500 μg/mL, which was then successively diluted 2-fold. In the wells assigned for control, equal volumes of the DMSO were added to the cells, where the toxic effects of DMSO could be subtracted. The cell growth in the incubator was continued for another 2 days. To determine the cell viability, the colorimetric MTT method was employed as described in our preceding article ([Orabi et al., 2021]). The concentration of cytotoxicity 50% (CC50) was determined from the dose-response curve. The mean CC50 value for each type of cell was calculated from triplicate assays ([Kantoh et al., 2010]). The changes in cell morphology were detected using light microscopy (EVOSfl; ThermoFisher Scientific, Waltham, MA, United States).

[2] = tested on: HSC-4 (human squamous carcinoma, derived from tongue); experiment: MTT cytotoxicity assay, HSC-4; format: cell-based; settings: HSC-4, 48 h, read-out: CC50 HSC-4
Protocol: (§1) The cancer cell lines (HSC-2, HSC-3, HSC-4), as well as the normal cells (HGF, HPLF, and HPC), were cultured at 37°C in a humidified 5% CO2 incubator in DMEM medium enriched with streptomycin sulphate (100 μg/mL), 10% heat-inactivated FBS, and penicillin G (100 units/mL). For cytotoxicity testing, cells were then garnered using 0.25% trypsin–0.025% sodium edetate in a phosphate-buffered saline lacking Ca^2+/Mg^2+ [PBS (−)]. The cells were cultured in 96-well microplates at a cell count of 3 ×10^3 cells/100 μL. After 2 days, the exhausted medium was replaced with fresh medium containing the different concentrations of sample to be tested, in triplicate. The initial sample concentration was set at 5 mg/mL in DMSO. The first concentration examined was thus 500 μg/mL, which was then successively diluted 2-fold. In the wells assigned for control, equal volumes of the DMSO were added to the cells, where the toxic effects of DMSO could be subtracted. The cell growth in the incubator was continued for another 2 days. To determine the cell viability, the colorimetric MTT method was employed as described in our preceding article ([Orabi et al., 2021]). The concentration of cytotoxicity 50% (CC50) was determined from the dose-response curve. The mean CC50 value for each type of cell was calculated from triplicate assays ([Kantoh et al., 2010]).

[3] = tested on: HSC-2 (human squamous carcinoma, derived from tongue); experiment: MTT cytotoxicity assay, HSC-2; format: cell-based; settings: HSC-2, 48 h, read-out: CC50 HSC-2
Protocol: as §1

[4] = MTT cytotoxicity assay, HGF; format: cell-based; settings: human, normal gingival fibroblasts (HGF), normal cells, 2 days exposure
Protocol: as §1

[5] = tested on: Ca9-22 (human gingival squamous carcinoma cell line); experiment: MTT cytotoxicity assay, Ca9-22; settings: for CC50: Homo sapiens, Ca9-22, 48 h, read-out: CC50 Ca9-22 (A)
Protocol: (§2) The cancer cell lines (HSC-2, HSC-3, HSC-4), as well as the normal cells (HGF, HPLF, and HPC), were cultured at 37°C in a humidified 5% CO2 incubator in DMEM medium enriched with streptomycin sulphate (100 μg/mL), 10% heat-inactivated FBS, and penicillin G (100 units/mL). For cytotoxicity testing, cells were then garnered using 0.25% trypsin–0.025% sodium edetate in a phosphate-buffered saline lacking Ca^2+/Mg^2+ [PBS (−)]. The cells were cultured in 96-well microplates at a cell count of 3 ×10^3 cells/100 μL. After 2 days, the exhausted medium was replaced with fresh medium containing the different concentrations of sample to be tested, in triplicate. The initial sample concentration was set at 5 mg/mL in DMSO. The first concentration examined was thus 500 μg/mL, which was then successively diluted 2-fold. In the wells assigned for control, equal volumes of the DMSO were added to the cells, where the toxic effects of DMSO could be subtracted. The cell growth in the incubator was continued for another 2 days. […] The concentration of cytotoxicity 50% (CC50) was determined from the dose-response curve. […] The changes in cell morphology were detected using light microscopy (EVOSfl; ThermoFisher Scientific, Waltham, MA, United States).
(§3) The following equation was used to calculate tumor specificity (TS): TS = average CC50 toward the normal cells (HGF + HPLF + HPC)/average CC50 toward the tumor cell lines (Ca9-22 + HSC-2 + HSC-3 + HSC-4), as indicated by D/B (Table 1). To compare the sensitivity of the cancer cells (Ca9-22) with that of the normal cells (HGF), being generated from the same tissue, the equation TS = CC50 against HGF/CC50 against Ca9-22 was used (see C/A in Table 1).

[6] = tested on: OSCC cell lines (Ca9-22 + HSC-2 + HSC-3 + HSC-4); experiment: MTT cytotoxicity assay, OSCC cell lines together (mean, TS, PSE); settings: for CC50: Homo sapiens, read-out: CC50 Mean (B), human oral squamous cell carcinoma cell lines; for Type of growth inhibition (cytotoxic or cytostatic) from dose-response curve: OSCC cell lines and normal oral cells, Figure 1
Protocol: as §2, §3

[7] = tested on: HSC-3 (human squamous carcinoma, derived from tongue); experiment: MTT cytotoxicity assay, HSC-3; format: cell-based; settings: HSC-3, 48 h, read-out: CC50 HSC-3
Protocol: as §1

[8] = MTT cytotoxicity assay, normal oral cells together (mean); format: cell-based; settings: human; mean of HGF, HPLF, HPC; read-out: CC50 Mean (D), human normal oral cells
Protocol: The cancer cell lines (HSC-2, HSC-3, HSC-4), as well as the normal cells (HGF, HPLF, and HPC), were cultured at 37°C in a humidified 5% CO2 incubator in DMEM medium enriched with streptomycin sulphate (100 μg/mL), 10% heat-inactivated FBS, and penicillin G (100 units/mL). For cytotoxicity testing, cells were then garnered using 0.25% trypsin–0.025% sodium edetate in a phosphate-buffered saline lacking Ca^2+/Mg^2+ [PBS (−)]. The cells were cultured in 96-well microplates at a cell count of 3 ×10^3 cells/100 μL. After 2 days, the exhausted medium was replaced with fresh medium containing the different concentrations of sample to be tested, in triplicate. The initial sample concentration was set at 5 mg/mL in DMSO. The first concentration examined was thus 500 μg/mL, which was then successively diluted 2-fold. In the wells assigned for control, equal volumes of the DMSO were added to the cells, where the toxic effects of DMSO could be subtracted. The cell growth in the incubator was continued for another 2 days. […] The concentration of cytotoxicity 50% (CC50) was determined from the dose-response curve.

[9] = MTT cytotoxicity assay, HPLF; format: cell-based; settings: human, normal periodontal ligament fibroblasts (HPLF), normal cells, 2 days exposure
Protocol: as §1

Ca9-22 cells = experiment: Cell cycle analysis (PI staining, cell sorter) and cell morphology; format: cell-based, human; settings: Ca9-22, 20 h, 1 µM
Protocol: The changes in cell morphology were detected using light microscopy (EVOSfl; ThermoFisher Scientific, Waltham, MA, United States).
Ca9-22 cells (3 × 10^4/mL, 10 mL) were added to a 10-cm dish and allowed to fully attach to the dish over the course of 48 h of incubation. […] These cells were mixed and then washed once with PBS (−). Both cell groups were fixed for 1 h on ice with 1% paraformaldehyde. Fixed cells were then washed twice with PBS (−) and treated with 400 μL of 200 μg/mL RNase A (which was preheated for 10 min at 100°C to inactivate DNase) to degrade RNA. The cells were then washed twice with PBS (−) and stained for 15 min with 0.01% propidium iodide (PI) in the presence of 0.01% NP-40 in PBS (−) to prevent cell aggregation. After filtering through Falcon® cell strainers (nylon mesh, pore size: 40 μm) (Corning, NY, United States) to remove aggregated cells, PI-stained cells were then subjected to cell sorting using (SH800 Series; SONY Imaging Products and Solutions Inc., Kanagawa, Japan), and finally analyzed with the Cell Sorter Software version 2.1.2.

Compound | CC50 at 2 days [1] [µM] | CC50 ([2]; MTT, 2 days exposure) [µM] | CC50 ([3]; MTT, 2 days exposure) [µM] | CC50 at 2 days [4] [µM] | CC50 [5] [µM] | CC50 [6] [µM] | Type of growth inhibition (cytotoxic or cytostatic) from dose-response curve [6] | CC50 ([7]; MTT, 2 days exposure) [µM] | CC50 at 2 days [8] [µM] | CC50 at 2 days [9] [µM] | CC50 [2] [µM] | CC50 [3] [µM] | TS (tumor selectivity) C/A ([5]; CC50 HGF / CC50 Ca9-22) | CC50 [7] [µM] | Morphological change of cells (Ca9-22 cells)
O=c1[nH]cc(F)c(=O)[nH]1 [5-FU, 5-fluorouracil] | > 1000 | 182 | 292 | > 1000 | 69.4 | > 386 | Cytostatic | > 1000 | > 1000 | > 1000 | – | – | – | – | –
N[C@@H](Cc1ccc(N(CCCl)CCCl)cc1)C(=O)O [Melphalan, melphalan] | 159 | – | – | 180 | 36.3 | 17.8 | Cytotoxic | – | > 180 | > 200 | 9.9 | 11 | 5.0 | 14.1 | –
COc1cccc2c1C(=O)c1c(O)c3c(c(O)c1C2=O)C[C@@](O)(C(=O)CO)C[C@@H]3O[C@H]1C[C@H](N)[C@H](O)[C@H](C)O1 [Doxorubicin, doxorubicin] | > 10 | < 0.078 | 0.09 | > 10 | 0.18 | < 0.13 | Cytotoxic | 0.16 | > 10 | > 10 | – | – | – | – | –
Cc1c2oc3c(C)ccc(C(=O)N[C@@H]4C(=O)N[C@H](C(C)C)C(=O)N5CCC[C@H]5C(=O)N(C)CC(=O)N(C)[C@@H](C(C)C)C(=O)O[C@@H]4C)c3nc-2c(C(=O)N[C@@H]2C(=O)N[C@H](C(C)C)C(=O)N3CCC[C@H]3C(=O)N(C)CC(=O)N(C)[C@@H](C(C)C)C(=O)O[C@@H]2C)c(N)c1=O [Act.D, actinomycin D] (I: T[dV]P[Sar][NMeV] / II: T[dV]P[Sar][NMeV]; ester I:1-I:C, II:1-II:C; linker I:N-II:N via Actinocin(9to1)) | – | – | – | – | – | – | – | – | – | – | – | – | – | – | cell shrinkage
